The text below walks through data of paper PMC7168207, “Dibasic Derivatives of Phenylcarbamic Acid as Prospective Antibacterial Agents Interacting with Cytoplasmic Membrane” (Antibiotics, 2020).

SMILES strings stand for the structures. Where “and” joins values, the source holds several entries; their conditions need not be identical. Identical values can stand only once. Like-named read-outs stand apart in the source and are kept apart here. Marks after values point to notes of the source that are not given here.

Data set [1] deals with S. aureus ATCC 29213. The experiment in a line: crystal violet uptake (membrane permeability). Format: cell-based, Staphylococcus aureus. As to conditions: 64 µg/mL, 1 h; two-way ANOVA, Tukey's test, p < 0.05. How it is done: The alternation in membrane permeability was detected by crystal violet assay. Bacterial suspension treated by compounds 1f, 1g, and 1h (all 64 µg/mL) for 1 h was prepared. The uptake of crystal violet was expressed as a percentage compared to the original crystal violet solution.
The method of crystal violet uptake was used to study membrane alteration. Bacterial suspension was cultivated to log phase in CaMH and then harvested at 4500 rpm for 5 min. The cells were washed twice and resuspended in PBS containing 64 µg/mL of the tested compounds. […] A growth control without antibiotics and a control containing the same amount of DMSO as treated tubes were included. The tubes were cultivated at 37 °C for 1 h. After that, the tubes were centrifuged at 4500 rpm for 15 min and washed twice in PBS. The cells were resuspended in PBS containing crystal violet (10 µg/mL). After 15 min incubation at 37 °C and centrifugation (15 min, 4500 rpm), the absorbance of supernatant at 595 nm was measured. The experiment was repeated three times, and the results were averaged. The percentage of crystal violet uptake was counted according to the equation:(1) % of uptake = OD595 of sample/OD595 of crystal violet solution × 100

In a further data set the test system is E. faecalis ATCC 29212. The experiment in a line: MIC, broth microdilution. The note with it: Enterococcus faecalis, ATCC 29212 / ATCC 29213; EF = E. faecalis ATCC 29213. The class given is cell-based, Enterococcus faecalis. An outline of the steps:
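Overnight colonies from blood agar were suspended in PBS to 0.5 McFarland and diluted to 5 × 10^5 CFU/mL final in wells. Staphylococci were tested in cation-adjusted Mueller–Hinton broth and enterococci in brain heart infusion.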

Data set [2] relates to vancomycin-resistant enterococci VRE 368. The experiment in a line: MIC, broth microdilution. The class given is cell-based, Enterococcus faecalis. As to conditions: Enterococcus, read-out: MICs. The method in brief: (§1)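 Broth microdilution in CaMH (staphylococci) or BHI (enterococci), 5 × 10^5 CFU/mL per well, 37 °C aerobic overnight.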
(In broth dilution the organism is exposed to a series of concentrations in liquid medium.)

For data set [3], the system named is vancomycin-resistant enterococci VRE 725B. The experiment in a line: MIC, broth microdilution. The class given is cell-based, Enterococcus faecalis. The note with it: Enterococcus, read-out: MICs. An outline of the steps: as §1
The test system of data set [4] is vancomycin-resistant enterococci VRE 342B. Kind of data set: MIC, broth microdilution. The class given is cell-based, Enterococcus faecalis. As to conditions: Enterococcus, read-out: MICs. The method in brief: as §1
Details of data set [5]: method as in PMID 30274224. The note with it: methanolic solutions, c = 8.0 × 10^−5 M; cited from earlier work.
The next data set has as its system MRSA 63718. The experiment in a line: time-kill study. Format: cell-based, Staphylococcus aureus. The note with it: MRSA1. The source says:
(§2) Time-kill studies are used to evaluate the dynamics of antibacterial activity. As mentioned above, a pre-test to determine minimum bactericidal concentration (MBC) by sub-cultivation of aliquots on agar was made (see Section 3.4). […] Time-kill studies were made with methicillin-susceptible S. aureus ATCC 29213 and methicillin-resistant MRSA 63718, vancomycin-susceptible E. faecalis ATCC 29212, and all three VRE isolates. Vancomycin was used as a control (Table 6).
(§3) The method of time-kill curves was used to study the bactericidal effect of selected compounds. […] The experiment was performed with S. aureus ATCC 29213, MRSA 63718, E. faecalis ATCC 29212, and all VRE isolates. […] The tubes were inoculated by bacterial inoculum in the exponential phase of growth to get a final concentration of 7.5 × 10^6 CFU/mL. The tubes were incubated statically at 37 °C. Immediately after inoculation and after 4, 6, 8, and 24 h, 100 µL of the sample was serially diluted (1:10) in PBS. Then, 2 × 20 µL from each dilution were put onto a Mueller–Hinton agar plate and cultivated at 37 °C for 24 h. After incubation, CFUs of dilutions containing 5–50 colonies were counted. Results were expressed as a decrease of log10(CFU) in each time compared to the starting inoculum. Bactericidal effect is defined as a −3log decrease of CFU/mL compared to the growth control in time 0. The test was made in duplicate on two separate occasions, and the results were averaged. The growth curves with error bars are shown in Figures S1 and S2 in Supplementary Materials.

For data set [6], the system named is S. aureus ATCC 29213. The experiment in a line: time-kill study. Format: cell-based, Staphylococcus aureus. The note with it: SA.
Excerpt: as §2, §3

`CCCCCOc1cccc(NC(=O)OC(CN(CCC)CCC)CN2CCCC2)c1.Cl.Cl` (stereo not drawn) [1f, 1-[3-(dipropylammonio)-2-({[3-(pentyloxy)phenyl]carbamoyl}-oxy)propyl]pyrrolidinium dichloride]: in the data set with S. aureus ATCC 29213 [1], the “crystal violet uptake compared with 1% Tween 20 (positive control)” value is recorded as “No statistically significant difference”. For the same molecule, the MIC was 32 µg/mL and 63.2 µM against E. faecalis ATCC 29212; 16 µg/mL and 31.6 µM in data set [2] (VRE2 = VRE 368); 16 µg/mL and 31.6 µM in data set [3] (VRE3 = VRE 725B); 16 µg/mL and 31.6 µM in data set [4] (VRE1 = VRE 342B). In data set [5], the “log ε2 (Ch-T)” value was 4.27.
For the molecule `CCCCCCOc1cccc(NC(=O)OC(CN(CCC)CCC)CN2CCCC2)c1.Cl.Cl` (stereo not drawn) [1g, 1-[3-(dipropylammonio)-2-({[3-(hexyloxy)phenyl]carbamoyl}oxy)propyl]pyrrolidinium dichloride], the “Log10 Difference in CFU/mL from Inoculum” value is on record as 0.00 log10 CFU/mL with MRSA 63718 (1 × MIC, 4 h); 0.66 log10 CFU/mL in the data set on MRSA 63718 (1 × MIC, 6 h); 1.00 log10 CFU/mL in the data set with MRSA 63718 (1 × MIC, 8 h); 1.99 log10 CFU/mL in the data set with MRSA 63718 (1 × MIC, 24 h); −1.33 log10 CFU/mL in the data set on MRSA 63718 (2 × MIC, 4 h); −0.93 log10 CFU/mL with MRSA 63718 (2 × MIC, 6 h). Further, the “Log10 Difference in CFU/mL from Inoculum” value in the data set on MRSA 63718 (2 × MIC, 8 h) was −0.26 log10 CFU/mL; with MRSA 63718 (2 × MIC, 24 h), 1.29 log10 CFU/mL; in the data set on MRSA 63718 (4 × MIC, 4 h), −2.57 * log10 CFU/mL; in the data set with MRSA 63718 (4 × MIC, 6 h), −1.99 * log10 CFU/mL; in the data set on MRSA 63718 (4 × MIC, 8 h), −1.26 * log10 CFU/mL; in the data set with MRSA 63718 (4 × MIC, 24 h), 1.21 log10 CFU/mL. The “Log10 Difference in CFU/mL from Inoculum” value in the data set on S. aureus ATCC 29213 [6] (1 × MIC, 4 h) is given as 1.54 log10 CFU/mL; in the data set with S. aureus ATCC 29213 [6] (1 × MIC, 6 h), 1.98 log10 CFU/mL; in the data set with S. aureus ATCC 29213 [6] (1 × MIC, 8 h), 2.33 log10 CFU/mL; in the data set with S. aureus ATCC 29213 [6] (1 × MIC, 24 h), 2.74 log10 CFU/mL; with S. aureus ATCC 29213 [6] (2 × MIC, 4 h), 0.87 log10 CFU/mL; with S. aureus ATCC 29213 [6] (2 × MIC, 6 h), 0.98 log10 CFU/mL. In addition, the “Log10 Difference in CFU/mL from Inoculum” value in the data set with S. aureus ATCC 29213 [6] (2 × MIC, 8 h) is on record as 1.26 log10 CFU/mL; with S. aureus ATCC 29213 [6] (2 × MIC, 24 h), 2.24 log10 CFU/mL; in the data set on S. aureus ATCC 29213 [6] (4 × MIC, 4 h) it was −0.26 log10 CFU/mL; with S. aureus ATCC 29213 [6] (4 × MIC, 6 h), −0.04 log10 CFU/mL; in the data set on S. aureus ATCC 29213 [6] (4 × MIC, 8 h), 0.10 log10 CFU/mL; with S. aureus ATCC 29213 [6] (4 × MIC, 24 h), 1.85 log10 CFU/mL. Further, the “crystal violet uptake compared with 1% Tween 20 (positive control)” value in the data set with S. aureus ATCC 29213 [1] is given as “No statistically significant difference”. Also, the MIC with E. faecalis ATCC 29212 was 16 µg/mL and 30.8 µM; in data set [2] (VRE2 = VRE 368), 8 µg/mL and 15.4 µM; in data set [3] (VRE3 = VRE 725B), 8 µg/mL and 15.4 µM; in data set [4] (VRE1 = VRE 342B), 8 µg/mL and 15.4 µM. Moreover, in data set [5], the “log ε2 (Ch-T)” value is on record as 4.13.
Consider `CN[C@H](CC(C)C)C(=O)N[C@H]1C(=O)N[C@@H](CC(N)=O)C(=O)N[C@H]2C(=O)N[C@H]3C(=O)N[C@H](C(=O)N[C@H](C(=O)O)c4cc(O)cc(O)c4-c4cc3ccc4O)[C@H](O)c3ccc(c(Cl)c3)Oc3cc2cc(c3O[C@@H]2O[C@H](CO)[C@@H](O)[C@H](O)[C@H]2O[C@H]2C[C@](C)(N)[C@H](O)[C@H](C)O2)Oc2ccc(cc2Cl)[C@H]1O` [VAN, vancomycin, reference compound], for which the “Log10 Difference in CFU/mL from Inoculum” value is reported as −1.00 log10 CFU/mL with MRSA 63718 (1 × MIC, 4 h); −1.50 log10 CFU/mL with MRSA 63718 (1 × MIC, 6 h); −1.76 log10 CFU/mL with MRSA 63718 (1 × MIC, 8 h); 0.55 log10 CFU/mL in the data set with MRSA 63718 (1 × MIC, 24 h); −0.91 log10 CFU/mL in the data set on MRSA 63718 (2 × MIC, 4 h); −1.43 log10 CFU/mL in the data set on MRSA 63718 (2 × MIC, 6 h). For the same molecule, the “Log10 Difference in CFU/mL from Inoculum” value in the data set on MRSA 63718 (2 × MIC, 8 h) is recorded as −1.97 log10 CFU/mL; in the data set on MRSA 63718 (2 × MIC, 24 h), −5.18 log10 CFU/mL; in the data set with MRSA 63718 (4 × MIC, 4 h) it was −1.31 log10 CFU/mL; in the data set on MRSA 63718 (4 × MIC, 6 h), −1.75 log10 CFU/mL; in the data set with MRSA 63718 (4 × MIC, 8 h) it was −3.89 log10 CFU/mL; with MRSA 63718 (4 × MIC, 24 h), −5.19 log10 CFU/mL. In addition, the “Log10 Difference in CFU/mL from Inoculum” value is recorded as −0.37 log10 CFU/mL with S. aureus ATCC 29213 [6] (1 × MIC, 4 h); −0.65 log10 CFU/mL with S. aureus ATCC 29213 [6] (1 × MIC, 6 h); −0.84 log10 CFU/mL in the data set with S. aureus ATCC 29213 [6] (1 × MIC, 8 h); 2.90 log10 CFU/mL in the data set with S. aureus ATCC 29213 [6] (1 × MIC, 24 h); −0.26 log10 CFU/mL in the data set with S. aureus ATCC 29213 [6] (2 × MIC, 4 h); −0.59 log10 CFU/mL with S. aureus ATCC 29213 [6] (2 × MIC, 6 h). The “Log10 Difference in CFU/mL from Inoculum” value in the data set with S. aureus ATCC 29213 [6] (2 × MIC, 8 h) is −1.12 log10 CFU/mL; in the data set on S. aureus ATCC 29213 [6] (2 × MIC, 24 h), −3.67 log10 CFU/mL; in the data set on S. aureus ATCC 29213 [6] (4 × MIC, 4 h), −0.27 log10 CFU/mL; in the data set on S. aureus ATCC 29213 [6] (4 × MIC, 6 h) it was −0.38 log10 CFU/mL; in the data set with S. aureus ATCC 29213 [6] (4 × MIC, 8 h) it was −1.18 log10 CFU/mL; in the data set on S. aureus ATCC 29213 [6] (4 × MIC, 24 h), −5.47 log10 CFU/mL. Also, the MIC in data set [2] (VRE) was 512 µg/mL and 353 µM; in data set [3] (VRE), 1020 µg/mL and 706 µM; in data set [4] (VRE), 512 µg/mL and 353 µM.
